ChEMBL document CHEMBL4359843, “Linear and Rationally Designed Stapled Peptides Abrogate TLR4 Pathway and Relieve Inflammatory Symptoms in Rheumatoid Arthritis Rat Model” (J Med Chem, 2019)
The source made the active and inactive calls. Where a SMILES comes first, the peptide text is derived from it. Bridges are numbered along the chain shown (N, C = ends).

Key:
[1] = molecular target: T1, Toll-like receptor 9 (Homo sapiens) (UniProt Q9NR96); test: Antagonist activity at TLR9 in human THP1 cells assessed as reduction in CpG ODN-induced IL6 secretion at 50 uM after 24 hrs by ELISA; assay type: cell-based
T1 sequence (whole entry): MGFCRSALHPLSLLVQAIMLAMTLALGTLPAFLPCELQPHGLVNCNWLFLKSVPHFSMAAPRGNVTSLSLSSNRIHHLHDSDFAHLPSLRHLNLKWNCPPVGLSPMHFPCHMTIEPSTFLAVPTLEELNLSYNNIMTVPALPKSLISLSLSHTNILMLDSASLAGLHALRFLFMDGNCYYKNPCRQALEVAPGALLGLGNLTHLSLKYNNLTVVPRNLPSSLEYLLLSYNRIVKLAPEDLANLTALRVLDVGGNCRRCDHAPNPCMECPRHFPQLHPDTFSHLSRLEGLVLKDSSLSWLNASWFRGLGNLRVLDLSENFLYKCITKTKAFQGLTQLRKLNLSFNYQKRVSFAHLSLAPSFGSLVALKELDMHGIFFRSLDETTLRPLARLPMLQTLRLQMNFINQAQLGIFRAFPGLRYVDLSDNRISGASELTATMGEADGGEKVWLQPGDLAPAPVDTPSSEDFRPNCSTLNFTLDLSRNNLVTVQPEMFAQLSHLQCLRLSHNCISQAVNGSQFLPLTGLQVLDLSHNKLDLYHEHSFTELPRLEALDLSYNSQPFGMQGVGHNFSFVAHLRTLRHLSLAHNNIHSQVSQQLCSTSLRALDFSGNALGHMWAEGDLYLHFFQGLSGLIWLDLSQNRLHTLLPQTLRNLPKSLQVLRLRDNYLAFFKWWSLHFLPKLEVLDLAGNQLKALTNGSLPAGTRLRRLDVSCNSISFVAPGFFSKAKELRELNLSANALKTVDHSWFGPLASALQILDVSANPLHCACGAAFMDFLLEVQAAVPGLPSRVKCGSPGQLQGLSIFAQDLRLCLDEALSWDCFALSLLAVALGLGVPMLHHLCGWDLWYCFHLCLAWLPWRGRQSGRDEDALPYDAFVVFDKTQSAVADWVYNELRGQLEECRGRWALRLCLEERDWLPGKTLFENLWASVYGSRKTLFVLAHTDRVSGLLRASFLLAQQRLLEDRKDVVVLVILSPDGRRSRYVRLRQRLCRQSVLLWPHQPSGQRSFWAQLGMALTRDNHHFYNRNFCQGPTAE

[2] = test system: Rattus norvegicus; test: Antiarthritic activity in Lewis rat model of complete Freund's adjuvant-induced arthritis assessed as regeneration of glycosaminoglycans at the border between bone and cartilage at 1 nmol/g administered intra-articularly into knee joint measured on third week by Safranin-O staining based histopathological analysis; assay type: functional, organism-based
[3] = molecular target: T2, Toll-like receptor 4 (Homo sapiens, UniProt O00206); test: Antagonist activity at TLR4 in human THP1 cells assessed as reduction in LPS-induced JNK phosphorylation at 50 uM after 15 to 30 mins by Western blot analysis; assay type: cell-based
[4] = molecular target: T3, Toll-like receptor 4 (Mus musculus) (UniProt Q9QUK6); test: Antagonist activity at TLR4 in mouse RAW264.7 cells assessed as reduction in LPS-induced IFNalpha secretion at 5 to 50 uM after 24 hrs by ELISA; assay type: cell-based
T3 sequence (whole entry): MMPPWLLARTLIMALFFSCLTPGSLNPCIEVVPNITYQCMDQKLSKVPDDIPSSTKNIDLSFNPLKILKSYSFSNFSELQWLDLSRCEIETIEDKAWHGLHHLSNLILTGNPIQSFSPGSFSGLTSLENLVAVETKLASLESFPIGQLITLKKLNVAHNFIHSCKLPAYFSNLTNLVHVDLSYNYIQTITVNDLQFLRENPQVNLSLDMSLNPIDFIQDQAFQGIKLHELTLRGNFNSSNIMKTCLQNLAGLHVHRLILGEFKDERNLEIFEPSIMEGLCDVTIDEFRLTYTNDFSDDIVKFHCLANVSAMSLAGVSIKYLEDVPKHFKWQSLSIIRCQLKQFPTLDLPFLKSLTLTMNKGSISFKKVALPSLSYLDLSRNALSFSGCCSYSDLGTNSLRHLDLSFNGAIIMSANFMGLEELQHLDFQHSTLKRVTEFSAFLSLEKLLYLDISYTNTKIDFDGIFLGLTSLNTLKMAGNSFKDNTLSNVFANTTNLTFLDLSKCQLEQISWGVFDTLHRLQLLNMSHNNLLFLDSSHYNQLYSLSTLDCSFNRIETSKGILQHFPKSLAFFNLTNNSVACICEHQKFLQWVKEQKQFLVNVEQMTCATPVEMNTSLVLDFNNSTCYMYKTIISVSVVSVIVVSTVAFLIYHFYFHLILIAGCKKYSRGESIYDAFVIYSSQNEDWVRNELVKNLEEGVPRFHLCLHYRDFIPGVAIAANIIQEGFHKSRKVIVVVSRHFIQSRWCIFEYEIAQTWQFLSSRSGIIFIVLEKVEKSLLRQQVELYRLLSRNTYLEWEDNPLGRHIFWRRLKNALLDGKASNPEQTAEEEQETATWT

[5] = molecular target: T2, Toll-like receptor 4; test: Antagonist activity at TLR4 in human THP1 cells assessed as reduction in LPS-induced IRF3 phosphorylation at 50 uM after 120 to 240 mins by Western blot analysis; assay type: cell-based
[6] = molecular target: T3, Toll-like receptor 4 (Mus musculus); test: Antagonist activity at TLR4 in mouse RAW264.7 cells assessed as reduction in LPS-induced NFkappaB p65 phosphorylation at 80 uM after 15 to 30 mins by Western blot analysis; assay type: cell-based

Measured: Activity

T2 sequence (O00206 whole entry): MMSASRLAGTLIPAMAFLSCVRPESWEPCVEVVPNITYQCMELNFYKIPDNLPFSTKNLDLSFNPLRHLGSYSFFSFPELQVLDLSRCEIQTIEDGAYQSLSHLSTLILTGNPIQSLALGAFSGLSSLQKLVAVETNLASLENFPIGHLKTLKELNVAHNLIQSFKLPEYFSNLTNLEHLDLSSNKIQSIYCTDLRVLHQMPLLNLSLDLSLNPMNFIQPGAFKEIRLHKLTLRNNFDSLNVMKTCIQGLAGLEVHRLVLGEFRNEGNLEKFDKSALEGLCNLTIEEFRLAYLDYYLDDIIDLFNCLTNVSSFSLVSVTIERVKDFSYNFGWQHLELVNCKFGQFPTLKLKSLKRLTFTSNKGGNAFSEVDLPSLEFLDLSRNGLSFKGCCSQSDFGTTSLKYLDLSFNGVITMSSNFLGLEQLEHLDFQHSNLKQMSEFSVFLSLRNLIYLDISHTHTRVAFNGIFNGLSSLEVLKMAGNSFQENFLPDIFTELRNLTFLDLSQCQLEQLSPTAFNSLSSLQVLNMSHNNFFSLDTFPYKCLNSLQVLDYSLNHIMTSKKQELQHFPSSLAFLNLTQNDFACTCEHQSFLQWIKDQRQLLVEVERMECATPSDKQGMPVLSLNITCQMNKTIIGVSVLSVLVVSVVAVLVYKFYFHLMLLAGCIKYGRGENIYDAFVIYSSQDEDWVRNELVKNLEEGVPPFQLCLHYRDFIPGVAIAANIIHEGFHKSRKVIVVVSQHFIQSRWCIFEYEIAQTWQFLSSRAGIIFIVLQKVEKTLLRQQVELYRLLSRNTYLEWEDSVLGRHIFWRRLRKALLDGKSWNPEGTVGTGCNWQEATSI

CC[C@H](C)[C@@H]1NC(=O)[C@H](Cc2c[nH]c3ccccc23)NC(=O)[C@H](Cc2c[nH]c3ccccc23)NC(=O)[C@@H](NC(=O)[C@H](CO)NC(=O)[C@H](Cc2ccccc2)NC(=O)[C@@H](NC(=O)CNC(=O)[C@@H](N)CC(C)C)C(C)C)CC(=O)NCCCC[C@@H](C(=O)N[C@@H](CC(C)C)C(=O)N[C@H](C(=O)O)C(C)C)NC1=O (H-LGVFSDWWIKLV-OH; lactam 6-10)
not listed: [6]
active: all other assays above

H-LGVFSSWWIKLV-OH
active: [6]
